Some test systems named below: OVCAR-8 ovarian; UO-31 renal; SF-539 CNS; BT-549 breast; CCRF-CEM leukemia; OVCAR-4 ovarian; ACHN renal; NCI-H522 lung; SK-MEL-2 melanoma; SF-295 CNS.
Assay in all cases: NCI anticancer screen, dose series, 48 h

We go through 20 compounds from PubChem BioAssay (NCI).

Structures are written as SMILES. “And” between values parts separate entries of the source, which are not always exact repeats. Identical values can stand only once.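 1) Cells in 96-well plates. 2) Compound, 48 h, 5 concentrations. 3) Linear interpolation between surrounding doses. 4) Unreached endpoint = highest concentration. GI50 is the concentration that inhibits growth by half. TGI denotes the concentration required for complete inhibition of growth.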 Where a SMILES comes first, the peptide text is derived from it. The star is where a group is joined. Cbz = O=C(OCc1ccccc1)*; Boc = CC(C)(C)OC(=O)*; tBu = CC(C)(C)*

Turning to `N#Cc1nc(C2=C(Cl)c3ccccc3OC2)[nH]c1C#N`, the TGI with OVCAR-8 ovarian is more than 100 µM; in the experiment on UO-31 renal it was 59.9 µM; in the experiment on SF-539 CNS, 45.2 µM; in the experiment with BT-549 breast it was 48 µM; in the experiment on CCRF-CEM leukemia, more than 100 µM; in the experiment on OVCAR-4 ovarian, more than 100 µM. In the experiment with ACHN renal, this compound yielded a TGI of more than 100 µM.
As to `COc1cc(O)c2c(c1)OCC(Cc1ccc(O)cc1)C2=O` (stereo unspecified), the TGI in the experiment with NCI-H522 lung, with SK-MEL-2 melanoma, with OVCAR-8 ovarian, with UO-31 renal, in the experiment with SF-539 CNS and with CCRF-CEM leukemia was more than 100 µM each time. The TGI with OVCAR-4 ovarian, in the experiment on SF-295 CNS and with ACHN renal was more than 100 µM each time.
On to `C/C=C(/C)C(=O)O[C@H]1C[C@@H]2[C@@H](O)c3occ(C)c3C[C@]2(C)[C@@H](C)C1`, for which the TGI in the experiment on NCI-H522 lung was 30.6 µM; in the experiment on OVCAR-8 ovarian, 36.9 µM; with SF-539 CNS it was 31.4 µM; in the experiment on CCRF-CEM leukemia, 47.4 µM; in the experiment with OVCAR-4 ovarian, 32.6 µM; in the experiment with SF-295 CNS it was 28.9 µM. Also, the TGI in the experiment with ACHN renal is 31 µM.
Turning to `Cc1ccc(S(=O)(=O)OC(c2ccc(Cl)cc2Cl)C2OC(=O)c3ccccc32)cc1` (stereo unspecified), the TGI in the experiment on NCI-H522 lung was more than 100 µM; in the experiment on SK-MEL-2 melanoma, more than 100 µM; in the experiment on OVCAR-8 ovarian, more than 100 µM; in the experiment on UO-31 renal, 95.6 µM; in the experiment with SF-539 CNS, more than 100 µM; in the experiment with CCRF-CEM leukemia, more than 100 µM. In addition, the TGI with OVCAR-4 ovarian, in the experiment on SF-295 CNS and in the experiment with ACHN renal was more than 100 µM in each case.
In the case of `CSC1=N/C(=C\c2ccccc2)C(=O)N1CN1CCCCC1`, the TGI was more than 100 µM in the experiment on NCI-H522 lung; more than 100 µM with SK-MEL-2 melanoma; more than 100 µM in the experiment on OVCAR-8 ovarian; more than 100 µM in the experiment on UO-31 renal; more than 100 µM with CCRF-CEM leukemia; 56.4 µM in the experiment with OVCAR-4 ovarian. The TGI in the experiment on SF-295 CNS and in the experiment on ACHN renal was more than 100 µM each time.
With `O=C1O/C(=C(/Br)c2ccc(Cl)c(Cl)c2)c2ccccc21`, the TGI in the experiment on NCI-H522 lung, with SK-MEL-2 melanoma, with OVCAR-8 ovarian, with UO-31 renal, in the experiment on SF-539 CNS and in the experiment with CCRF-CEM leukemia was more than 10 µM in each case. For the same compound, the TGI in the experiment with OVCAR-4 ovarian, in the experiment on SF-295 CNS and in the experiment on ACHN renal was more than 10 µM throughout.
For `CCOC(=O)C1(C(=O)OCC)C[C@H](C)[C@](C)(O)C1`, the TGI in the experiment with NCI-H522 lung, in the experiment on SK-MEL-2 melanoma, in the experiment with OVCAR-8 ovarian, in the experiment with UO-31 renal, with SF-539 CNS and in the experiment on CCRF-CEM leukemia was more than 100 µM throughout. Besides, the TGI with OVCAR-4 ovarian, with SF-295 CNS and in the experiment on ACHN renal was more than 100 µM in each case.
Take `C=C(C)C(=O)OC1CCC2(C)C(CCC3C2CCC2(C)C(c4ccc(=O)oc4)CC4OC432)C1` (stereo unspecified): the TGI turned out to be 8.78 µM in the experiment with NCI-H522 lung; 10.2 µM with SK-MEL-2 melanoma; 24 µM with OVCAR-8 ovarian; 35.8 µM with UO-31 renal; 27.9 µM in the experiment on SF-539 CNS; 15.3 µM with CCRF-CEM leukemia. The TGI was 34 µM in the experiment on OVCAR-4 ovarian and 23.1 µM in the experiment on SF-295 CNS.
With `Cc1nn(C(=O)Cc2ccccc2)c2c1C(c1ccc(N(C)C)cc1)SC(N)=N2` (stereo unspecified), the TGI in the experiment with NCI-H522 lung, in the experiment on OVCAR-8 ovarian, in the experiment on UO-31 renal, with SF-539 CNS, with BT-549 breast and in the experiment with CCRF-CEM leukemia was more than 100 µM throughout. Further, the TGI in the experiment with SF-295 CNS and with ACHN renal was more than 100 µM in each case.
Consider `O=C1NN(C2=NNC3(C(=O)N2)c2ccccc2-c2ccccc23)C(c2ccccc2)=N/C1=C/c1ccc(O)cc1`, for which the GI50 was 65.9 µg/mL with OVCAR-8 ovarian; 48.9 µg/mL in the experiment with UO-31 renal; 32.7 µg/mL in the experiment with SF-539 CNS; more than 150 µg/mL in the experiment on BT-549 breast; 46.4 µg/mL in the experiment on CCRF-CEM leukemia; 57.5 µg/mL with OVCAR-4 ovarian. For the same compound, the GI50 was 56.9 µg/mL with SF-295 CNS and 41.7 µg/mL with ACHN renal. Further, the TGI in the experiment on OVCAR-8 ovarian was more than 150 µg/mL; in the experiment with UO-31 renal it was more than 150 µg/mL; in the experiment with SF-539 CNS it was 87.5 µg/mL; in the experiment on BT-549 breast, more than 150 µg/mL; in the experiment on CCRF-CEM leukemia, more than 150 µg/mL; in the experiment with OVCAR-4 ovarian, more than 150 µg/mL. For the same compound, the TGI in the experiment with SF-295 CNS and in the experiment with ACHN renal was more than 150 µg/mL in each case.
`Clc1ccccc1/C=C/c1cscn1`: the TGI in the experiment on NCI-H522 lung, with SK-MEL-2 melanoma, in the experiment on UO-31 renal, in the experiment on SF-539 CNS, with CCRF-CEM leukemia and in the experiment on OVCAR-4 ovarian was more than 100 µM throughout. Moreover, the TGI in the experiment on ACHN renal is more than 100 µM.
With `CC(OC(C)(C)C)C(NC(=O)C(CCCCNC(=O)OC(C)(C)C)NC(=O)C(Cc1c[nH]c2ccccc12)NC(=O)C(Cc1ccccc1)NC(=O)OCc1ccccc1)C(=O)NC(Cc1ccccc1)C(=O)O` (stereo unspecified) (Cbz-FWK(Boc)T(tBu)F-OH; configuration not given here), the TGI with NCI-H522 lung is 85 µM; with SK-MEL-2 melanoma it was 92.8 µM; in the experiment with OVCAR-8 ovarian, more than 100 µM; in the experiment with UO-31 renal it was more than 100 µM; in the experiment with SF-539 CNS, 59.9 µM; with CCRF-CEM leukemia, more than 100 µM. Also, the TGI in the experiment on OVCAR-4 ovarian, in the experiment with SF-295 CNS and in the experiment with ACHN renal was more than 100 µM in each case.
For the compound `CCc1c(C)c(C#N)c(=S)n(C2OC(COC(C)=O)C(OC(C)=O)C(OC(C)=O)C2OC(C)=O)c1C` (stereo unspecified), the TGI in the experiment with NCI-H522 lung was more than 100 µM; with SK-MEL-2 melanoma, 32.9 µM; in the experiment with OVCAR-8 ovarian, more than 100 µM; with UO-31 renal, 92.2 µM and 14.5 µM; in the experiment with SF-539 CNS it was more than 100 µM; with CCRF-CEM leukemia, more than 100 µM. The TGI with OVCAR-4 ovarian, with SF-295 CNS and in the experiment on ACHN renal was more than 100 µM each time. The GI50 is 11 µM and 3.57 µM with UO-31 renal; > 100 µM and 31.4 µM with SF-539 CNS; > 100 µM and 23 µM in the experiment with SF-295 CNS; > 100 µM and 18.9 µM with ACHN renal.
On to `COc1cc(/C=C2\CCCC3=C2NC(C)=NC3c2cc(OC)c(OC)c(OC)c2)cc(OC)c1OC` (stereo unspecified), for which the GI50 is 0.372 µM with OVCAR-8 ovarian, 1.55 µM with SF-539 CNS, 0.838 µM in the experiment with CCRF-CEM leukemia and 2.39 µM in the experiment on OVCAR-4 ovarian. For the same compound, the TGI in the experiment with OVCAR-8 ovarian, in the experiment with SF-539 CNS, in the experiment on CCRF-CEM leukemia and in the experiment on OVCAR-4 ovarian was more than 100 µM each time.
For `N#C/C(N)=C(\C#N)N=CN`, the TGI with SK-MEL-2 melanoma, in the experiment on OVCAR-8 ovarian, in the experiment with UO-31 renal, in the experiment on SF-539 CNS, in the experiment with CCRF-CEM leukemia and in the experiment on OVCAR-4 ovarian was more than 100 µM each time. Moreover, the TGI with SF-295 CNS and in the experiment with ACHN renal was more than 100 µM throughout.
`O=C(O)Cc1cccc2c1OC(c1ccccc1)C(Cl)(C(=O)c1ccccc1)C2=O` (stereo unspecified): the TGI in the experiment with NCI-H522 lung was 29.6 µM; in the experiment with OVCAR-8 ovarian, 65.2 µM; in the experiment on UO-31 renal, 31.9 µM; in the experiment on SF-539 CNS, 84.3 µM; with BT-549 breast, more than 100 µM; with CCRF-CEM leukemia, 18.2 µM. Further, the figures for the TGI with SF-295 CNS and with ACHN renal were 66.3 µM and 26.9 µM, respectively.
In the case of `O=S1(=O)N(CCNc2nccc(-c3c(-c4cccc(O)c4)nc4sccn34)n2)CCN1Cc1ccccc1`, the GI50 with NCI-H522 lung is 2.98 µM; in the experiment with SK-MEL-2 melanoma, 1.55 µM; in the experiment with OVCAR-8 ovarian, 4.88 µM; in the experiment with UO-31 renal, 3.01 µM; in the experiment with SF-539 CNS, 7.14 µM; in the experiment with CCRF-CEM leukemia, 2.26 µM. The GI50 in the experiment on OVCAR-4 ovarian is 13.6 µM; in the experiment with SF-295 CNS, 7.57 µM; with ACHN renal, 3.83 µM. Besides, the TGI in the experiment on NCI-H522 lung is 14.9 µM; with SK-MEL-2 melanoma, 4.59 µM; with OVCAR-8 ovarian, more than 50 µM; in the experiment with UO-31 renal, 39.3 µM; with SF-539 CNS it was more than 50 µM; with CCRF-CEM leukemia it was 30.9 µM. In addition, the TGI in the experiment with OVCAR-4 ovarian was more than 50 µM; in the experiment with SF-295 CNS it was 20.3 µM; with ACHN renal, 48.2 µM.
With `CNC(=O)N1CN(c2ccccc2)C2(CCN(CCCC3(c4ccc(F)cc4)OCCO3)CC2)C1=O`, the TGI with NCI-H522 lung, in the experiment with SK-MEL-2 melanoma, in the experiment on UO-31 renal, in the experiment with SF-539 CNS, with CCRF-CEM leukemia and with OVCAR-4 ovarian was more than 100 µM in each case. Moreover, the TGI with SF-295 CNS and with ACHN renal was more than 100 µM each time.
Consider `c1csc(-c2cc(-c3cccs3)c(-c3ccsc3)s2)c1`, for which the TGI with SK-MEL-2 melanoma, with OVCAR-8 ovarian, in the experiment with UO-31 renal, with SF-539 CNS, in the experiment on CCRF-CEM leukemia and in the experiment on OVCAR-4 ovarian was more than 100 µM each time. Further, the TGI in the experiment on SF-295 CNS and in the experiment on ACHN renal was more than 100 µM in each case.
In the case of `CC(=NNC(=S)Nc1ccc(C)cc1)c1cccc(C(C)=NNC(=S)Nc2ccc(C)cc2)n1`, the TGI was 63.7 µM in the experiment on NCI-H522 lung; more than 100 µM with SK-MEL-2 melanoma; 34.5 µM with OVCAR-8 ovarian; more than 100 µM in the experiment on UO-31 renal; 28.1 µM in the experiment on SF-539 CNS; more than 100 µM in the experiment on CCRF-CEM leukemia. For the same compound, the results for the TGI in the experiment with OVCAR-4 ovarian, in the experiment with SF-295 CNS and in the experiment on ACHN renal were 89.1 µM, 71.7 µM and 95.2 µM, respectively.
